How the values were obtained:
Assay in all cases: SILAC RP-ABPP
Assay type in all cases: cell-based
Settings in all cases: SILAC H/L
[1] = target: T1, CTSA Lysosomal protective protein (P10619) (Homo sapiens, UniProt P10619)
T1 construct: In Situ Labelling of Cells with Hydrazine Probes for MS Experiments; endogenous in cells; host or cells: HEK293T and/or MDA-MB-231
T1 sequence (P10619 29-480): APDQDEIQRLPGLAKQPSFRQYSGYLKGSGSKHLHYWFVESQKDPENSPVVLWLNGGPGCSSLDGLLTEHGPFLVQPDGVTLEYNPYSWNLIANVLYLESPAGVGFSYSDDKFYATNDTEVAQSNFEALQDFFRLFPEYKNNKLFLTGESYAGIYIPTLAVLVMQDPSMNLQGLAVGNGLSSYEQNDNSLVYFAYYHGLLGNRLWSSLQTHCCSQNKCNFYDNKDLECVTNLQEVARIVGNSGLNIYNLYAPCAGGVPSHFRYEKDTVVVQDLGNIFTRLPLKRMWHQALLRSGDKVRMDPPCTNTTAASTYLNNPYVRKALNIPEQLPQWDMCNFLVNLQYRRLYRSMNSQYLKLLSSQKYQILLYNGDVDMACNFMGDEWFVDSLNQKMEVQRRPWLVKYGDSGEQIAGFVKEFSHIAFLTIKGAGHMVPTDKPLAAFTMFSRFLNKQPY
Procedure: (§1) For MS-based experiments, labelling was performed in a similar manner as described above in Example 2, maintaining the same concentrations of probes. Modifications to this protocol included using isotopically ‘light’ and ‘heavy’ SILAC cells that were also grown to near complete confluence prior to treatment. Isotopically light cells were treated with the non-clickable hydrazine probe (at the same concentration as the probe in ‘enrichment’ experiments) or the probe in the presence of 10-fold excess non-clickable hydrazine probe as a competitor (in ‘competition’ experiments). Isotopically heavy cells were treated with the probe for both types of experiments. These treatments were performed in non-SILAC media. Following treatments, cells were washed with cold PBS to remove the probe-containing media, harvested by scraping, collected by centrifugation (1,400 g, 3 min, 4° C.), washed again by resuspension in cold PBS and frozen as pellets at −80° C. until use.
(§2) The fractionated equimolar mixture of heavy and light soluble proteomes (1-1.5 mg) was diluted to 1 mL in PBS. Click reactions were scaled accordingly (except for biotin-azide) to maintain final concentrations of 0.1 mM TBTA, 1 mM CuSO4, 100 μM biotin-azide (10 mM in DMSO) and 1 mM TCEP. The mixture was vortexed and placed on a rotator at ambient temperature for 1 hour. Sequential addition of and mixture with pre-chilled methanol (MeOH, 2 mL), chloroform (CHCl3, 0.5 mL) and PBS (1 mL) on ice quenched the reaction. The precipitated proteome was centrifuged (5,000 g, 10 min, 4° C.) to fractionate the protein interphase from the organic and aqueous solvent layers. The protein pellet was washed with cold 1:1 MeOH:CHCl3 (3×1 mL), mildly sonicated in cold 4:1 MeOH:CHCl3 (2.5 mL) and pelleted once more by centrifugation (5,000 g, 10 min, 4° C.) to ensure click reagents were efficiently removed.
(§3) Heavy and light parent ion chromatograms associated with successfully identified peptides were extracted and compared using CIMAGE software as previously described^69. At least one ion of a co-eluting heavy-light pair must be accurately identified from a fragmentation event that occurred within the retention time window (±10 min) of parent ion elution. To ensure that the correct pair of peaks is quantified, chromatograms are extracted within a 10 ppm error tolerance of the predicted m/z, the signal-to-noise ratio must be >2.5 and the ‘co-elution correlation score’ and ‘envelope correlation score’ must have R^2 values ≥0.8. In addition, peptides detected as ‘singletons,’ where only the heavy ion of a peptide pair was identified, but for which passed all other filtering parameters, are given a default assigned ratio of ‘20,’ which is defined as any measured ratio that is ≥20.
(§4) To further eliminate false positives and any stochastic variability in the data, protein ratios were then determined by the median peptide ratio derived from three or more unique quantified peptides. Protein ratios that complied with these criteria from a single experiment were then averaged with ratios acquired from ≥3 replicates to provide final values for each type of experiment in both cell lines with both probes. […] Most importantly, there are no robustly measured ratios for proteins identified as probe 1 targets that had measured ratios of ˜1 with probe 2. Probe targets in HEK293T and MDA-MB-231 cells represent data combined from ≥3 independent biological replicates with each cell type performed with several independent batches of synthesized probes over a period of almost two years.
(§5) Analogous experiments were also performed with the aryl hydrazine probe 2 (1 mM, 0.5 hour), which furnished a larger list of high-reactivity proteins (33 in total; Table 3) that contained several of the targets of probe 1 (compared in Table 4), as well as additional proteins that may reflect an expanded chemical reactivity for probe 2.

[2] = target: T2, CTSC Dipeptidyl peptidase 1 (P53634) (Homo sapiens, UniProt P53634)
T2 construct: In Situ Labelling of Cells with Hydrazine Probes for MS Experiments; endogenous in cells; host or cells: HEK293T and/or MDA-MB-231
Procedure: as §1, §2, §3, §4, §5

[3] = target: T3, DENR Densityregulated protein (O43583) (Homo sapiens, UniProt O43583)
T3 construct: In Situ Labelling of Cells with Hydrazine Probes for MS Experiments; endogenous in cells; host or cells: HEK293T and/or MDA-MB-231
T3 sequence (O43583 1-198): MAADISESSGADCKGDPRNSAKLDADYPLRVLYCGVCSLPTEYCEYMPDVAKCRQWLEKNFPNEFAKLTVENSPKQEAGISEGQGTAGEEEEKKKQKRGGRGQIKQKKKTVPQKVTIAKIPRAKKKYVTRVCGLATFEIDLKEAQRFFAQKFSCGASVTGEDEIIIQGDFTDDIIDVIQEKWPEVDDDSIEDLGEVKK
Procedure: as §1, §2, §3, §4, §5

[4] = target: T4, FTH1 Ferritin heavy chain (P02794) (Homo sapiens, UniProt P02794)
T4 construct: In Situ Labelling of Cells with Hydrazine Probes for MS Experiments; endogenous in cells; host or cells: HEK293T and/or MDA-MB-231
Procedure: as §1, §2, §3, §4, §5

[5] = target: T5, FTO Alphaketoglutaratedependent dioxygenase (Q9C0B1) (Homo sapiens, UniProt Q9C0B1)
T5 construct: In Situ Labelling of Cells with Hydrazine Probes for MS Experiments; endogenous in cells; host or cells: HEK293T and/or MDA-MB-231
Procedure: as §1, §2, §3, §4, §5

[6] = target: T6, PPT1 Palmitoylprotein thioesterase 1 (P50897) (Homo sapiens, UniProt P50897)
T6 construct: In Situ Labelling of Cells with Hydrazine Probes for MS Experiments; endogenous in cells; host or cells: HEK293T and/or MDA-MB-231
T6 sequence (P50897 28-306): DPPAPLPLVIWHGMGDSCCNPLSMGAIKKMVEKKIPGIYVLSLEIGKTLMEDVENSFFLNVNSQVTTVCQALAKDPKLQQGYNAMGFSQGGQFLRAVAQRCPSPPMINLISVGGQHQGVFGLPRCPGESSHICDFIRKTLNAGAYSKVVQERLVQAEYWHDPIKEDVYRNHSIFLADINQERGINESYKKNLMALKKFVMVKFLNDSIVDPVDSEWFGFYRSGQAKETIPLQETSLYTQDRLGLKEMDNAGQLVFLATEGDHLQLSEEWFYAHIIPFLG
Procedure: as §1, §2, §3, §4, §5

[7] = probe 1 3 mM 0.5 h vs probe 3, cell line not given
[8] = probe 1 vs probe 1+10x probe 3, cell line not given
[9] = probe 2 1 mM 0.5 h vs probe 4, MDA-MB-231
[10] = probe 2 vs probe 2+10x probe 4, MDA-MB-231

| SMILES | enrichment ratioavg [1, 7] | competition ratioavg [1, 8] | competition ratioavg [2, 8] | competition ratioavg [3, 8] | enrichment ratioavg [4, 7] | competition ratioavg [4, 8] | competition ratioavg [5, 8] | competition ratioavg [6, 8] | enrichment ratioavg [1, 9] | competition ratioavg [1, 10] | enrichment ratioavg [2, 9] | competition ratioavg [2, 10] | enrichment ratioavg [3, 9] | competition ratioavg [3, 10] | enrichment ratioavg [4, 9] | competition ratioavg [4, 10] | enrichment ratioavg ([5]; probe 2 1 mM 0.5 h vs probe 4, HEK293T) | competition ratioavg ([5]; probe 2 vs probe 2+10x probe 4, HEK293T) | enrichment ratioavg [6, 9] | competition ratioavg [6, 10] |
| --- | --- | --- | --- | --- | --- | --- | --- | --- | --- | --- | --- | --- | --- | --- | --- | --- | --- | --- | --- | --- |
| C#CCNN.Cl [probe 1, prop-2-yn-1-ylhydrazine hydrochloride] | 4 | 4 | 3 | 1 | 1 | 1 | 1 | 5 | – | – | – | – | – | – | – | – | – | – | – | – |
| C#CCCNC(=O)c1ccc(NN)cc1.Cl [probe 2, N-(but-3-yn-1-yl)-4-hydrazinylbenzamide hydrochloride] | – | – | – | – | – | – | – | – | 9 | 4 | 20 | 9 | 20 | 5 | 20 | 5 | 13 | 5 | 20 | 5 |

— patent US11226337B2, “Chemoproteomic profiling of protein electrophilic and oxidative post-translational modifications” (Zenagem, LLC, priority 2017, dated 2022)
